The values that follow come from patent US4474775A, “Pyrazol-4-yl phosphates and insecticidal and acaricidal use” (priority 1979, dated 1984).

SMILES strings stand for the structures. Some results are limits rather than exact numbers.

One series concerns Laodelphax striatellus. Description: Effectiveness against Laodelphax striatellus, adults, dust on paddy-rice plant (Testing Example 1 (b)). The class given is in vivo. As to conditions: small brown planthopper, adults on dusted rice, 24 h. As for the experimental part:
(§1) Testing Example 1: Effectiveness against Laodelphax striatellus
(b) A test compound was processed into a dust preparation in accordance with the formulation of Example 8, and […] of the preparation was dusted on the potted paddy-rice plant (1/5,000 a) by the Berger Duster method. After dusting, leaves (15 cm long) of the paddy rice were cut off and were placed in a test tube containing 1 ml of water in the bottom, and ten adults of Laodelphax striatellus were released therein. After allowing the test tube to stand in the room (28° C.) for 24 hours, the dead insects were counted.
Regarding `CCCSP(=S)(OCC)Oc1cnn(-c2cc(Cl)c(Cl)cc2Cl)c1` (centres unmarked) [compound 43], the “Mortality (II)” value was determined as 40%.

The next series has as its system Spodoptera litura. Description: Effectiveness against Spodoptera litura (Testing Example 2). The class given is in vivo. The settings on record: second-instar larvae, 500 ppm spray on soybean, 28° C., 24 hours. The procedure:
Testing Example 2: Effectiveness against Spodoptera litura
Twenty milliliters of a 500 ppm, water-diluted solution (with Dyne® Takeda Chem. Ind. Ltd., spreading agent, as diluted 3000-fold) of the test compound (the emulsifiable concentrate of Example 6) was sprayed on grown seedlings (10 days after germination) of soybean plant water-cultured in a polyethylene cup by the use of a spray gun (nozzle pressure of 1 kg/cm^2 gauge) in a spraying chamber. 2 hours after spraying, two main leaves of soybean plant were cut off and were placed into two cups (6 cm in diameter and 4 cm in depth), respectively, and ten second-instar larvae of Spodoptera litura were liberated. The cups were left in the room (28° C.) for 24 hours, and the dead larvae were counted.
A word on the mortality: it is the percentage killed. Turning to `CCCSP(=O)(OCC)Oc1cnn(-c2ccccc2)c1` (centres unmarked) [Compound No. 4, O-ethyl-O-(1-phenylpyrazol-4-yl)-S-n-propylphosphorothiolate], the mortality at 500 ppm came out at 100%.

Take `CCCSP(=O)(OCC)Oc1cnn(-c2ccccc2Cl)c1` (centres unmarked) [compound 12]: the mortality at 500 ppm worked out at 100%.

Compound `CCCSP(=S)(OCC)Oc1cnn(-c2ccc(OC)cc2)c1` (centres unmarked) [compound 25] came in with a mortality at 500 ppm of 100%.

`CCCSP(=O)(OCC)Oc1cnn(-c2ccc(C)cc2C)c1` (centres unmarked) [compound 35] had a mortality at 500 ppm of 100%.

As to `CCCSP(=S)(OCC)Oc1cnn(-c2cc(Cl)c(Cl)cc2Cl)c1` (centres unmarked) [compound 43], the mortality at 500 ppm stood at 100%.

The subject of a further series is Tetranychus urticae. Description: Effectiveness against Tetranychus urticae (Testing Example 4). Format: in vivo. As to conditions: decrease rate grade, 500 ppm spray on kidney bean plant, 2nd day after spraying. As for the experimental part: Testing Example 4: Effectiveness against Tetranychus urticae
A test compound was processed into an emulsifiable concentrate in accordance with the formulation of Example 6, and diluted with water (with Dyne®, spreading agent, as diluted 3000-fold) to prepare a 500 ppm aqueous solution. Ten female adults of Tetranychus urticae) were infected on the seedling of a kidney bean plant water-cultured in a polyethylene cup, and the cups were placed in a glass chamber (28° C.) for 24 hours, followed by spraying 20 ml of the aqueous solution on the kidney bean plant. After the sprayed cup was placed again in the glass chamber, the number of the adults and larvae living on the leaves was counted on the 2nd and 7th days after spraying. The test was repeated twice, and the test results are tabulated in Table 5 in terms of the efficacy grading as determined by calculating a decrease rate by the following equation:
Decrease rate (%)=[(number of mites tested-number of larvae living on the day of inspection)/(number of mites tested)]×100
Take `COP(=S)(OC)Oc1cnn(-c2ccccc2)c1` [Compound No. 1]: the “Efficacy grading, 2nd day” value is on record as 3 (Not less than 90).

As to `CCCOP(=S)(OCC)Oc1cnn(-c2ccccc2)c1` (centres unmarked) [Compound No. 3], the “Efficacy grading, 2nd day” value is on record as 3 (Not less than 90).

`CCCSP(=O)(OCC)Oc1cnn(-c2ccccc2)c1` (centres unmarked) [Compound No. 4, O-ethyl-O-(1-phenylpyrazol-4-yl)-S-n-propylphosphorothiolate]: the “Efficacy grading, 2nd day” value was 3 (Not less than 90).

Turning to `CCCSP(=O)(OCC)Oc1cnn(-c2ccccc2Cl)c1` (centres unmarked) [compound 12], the “Efficacy grading, 2nd day” value was 3 (Not less than 90).

In the case of `CCCSP(=S)(OCC)Oc1cnn(-c2ccc(OC)cc2)c1` (centres unmarked) [compound 25], the “Efficacy grading, 2nd day” value is 3 (Not less than 90).

`CCCSP(=O)(OCC)Oc1cnn(-c2ccc(C)cc2C)c1` (centres unmarked) [compound 35]: the “Efficacy grading, 2nd day” value is on record as 3 (Not less than 90).

As for `CCCSP(=S)(OCC)Oc1cnn(-c2cc(Cl)c(Cl)cc2Cl)c1` (centres unmarked) [compound 43], the “Efficacy grading, 2nd day” value was 3 (Not less than 90).

The same series, now with this note: decrease rate grade, 500 ppm spray on kidney bean plant, 7th day after spraying.
For the compound `COP(=S)(OC)Oc1cnn(-c2ccccc2)c1` [Compound No. 1], the “Efficacy grading, 7th day” value is given as 3 (Not less than 90).

For the compound `CCCOP(=S)(OCC)Oc1cnn(-c2ccccc2)c1` (centres unmarked) [Compound No. 3], the “Efficacy grading, 7th day” value is on record as 0 (Not more than 20).

With `CCCSP(=O)(OCC)Oc1cnn(-c2ccccc2)c1` (centres unmarked) [Compound No. 4, O-ethyl-O-(1-phenylpyrazol-4-yl)-S-n-propylphosphorothiolate], the “Efficacy grading, 7th day” value is 3 (Not less than 90).

On to `CCCSP(=O)(OCC)Oc1cnn(-c2ccccc2Cl)c1` (centres unmarked) [compound 12], for which the “Efficacy grading, 7th day” value was 3 (Not less than 90).

Turning to `CCCSP(=S)(OCC)Oc1cnn(-c2ccc(OC)cc2)c1` (centres unmarked) [compound 25], the “Efficacy grading, 7th day” value was 3 (Not less than 90).

For `CCCSP(=O)(OCC)Oc1cnn(-c2ccc(C)cc2C)c1` (centres unmarked) [compound 35], the “Efficacy grading, 7th day” value is 3 (Not less than 90).

Take `CCCSP(=S)(OCC)Oc1cnn(-c2cc(Cl)c(Cl)cc2Cl)c1` (centres unmarked) [compound 43]: the “Efficacy grading, 7th day” value is 3 (Not less than 90).

Tested on in the next series: not listed separately
Description: Oral acute toxicity in mice (Toxicological Test). As to conditions: mouse, in vivo, five-week aged ddY-SLC strained male mice. The source says: Below tabulated are the oral acute toxicity values obtained with five-week aged, ddY-SLC strained male mice: […]
For orientation: LD50 means the dose expected to kill half of the subjects tested. Turning to `COP(=S)(OC)Oc1cnn(-c2ccccc2)c1` [Compound No. 1], the 50% lethal dose (LD50) was greater than 300 mg/kg.

The compound `CCCOP(=S)(OCC)Oc1cnn(-c2ccccc2)c1` (centres unmarked) [Compound No. 3] came in with a 50% lethal dose (LD50) greater than 300 mg/kg.

With `CCCSP(=O)(OCC)Oc1cnn(-c2ccccc2)c1` (centres unmarked) [Compound No. 4, O-ethyl-O-(1-phenylpyrazol-4-yl)-S-n-propylphosphorothiolate], the LD50 was greater than 300 mg/kg.

`CCOP(=S)(OCC)Oc1cnn(-c2ccccc2)c1` [compound 2] came in with an LD50 greater than 300 mg/kg.

In turn, `CCCSP(=O)(OCC)Oc1cnn(-c2ccccc2Cl)c1` (centres unmarked) [compound 12] displayed a 50% lethal dose (LD50) greater than 300 mg/kg.

In turn, `CCCSP(=S)(OCC)Oc1cnn(-c2ccc(OC)cc2)c1` (centres unmarked) [compound 25] returned a 50% lethal dose (LD50) greater than 300 mg/kg.

Consider `CCOP(=S)(OCC)Oc1cnn(-c2ccc(C)cc2C)c1` [compound 34], for which the 50% lethal dose (LD50) is greater than 300 mg/kg.

`CCCSP(=O)(OCC)Oc1cnn(-c2ccc(C)cc2C)c1` (centres unmarked) [compound 35] returned an LD50 of roughly 300 mg/kg.

As for `CCCSP(=S)(OCC)Oc1cnn(-c2cc(Cl)c(Cl)cc2Cl)c1` (centres unmarked) [compound 43], the LD50 is greater than 300 mg/kg.

For the next series, the system named is Laodelphax striatellus. Description: Effectiveness against Laodelphax striatellus, third-instar larvae, root dip (Testing Example 1 (a)). The class given is in vivo. As to conditions: 40 ppm emulsifiable concentrate dilution, root dip 2 hours, 28° C., 24 hours, read-out: Mortality (I). The procedure:
as §1
(a) A test compound was processed into an emulsifiable concentrate in accordance with the formulation of Example 6, followed by diluting with water to prepare a treating solution of a 40 ppm concentration. 2.5 ml of the treating solution was placed into a test tube (with 1.7 cm of diameter, 4 cm deep), in which three seedlings of a paddy-rice plant (on the 7th day after germination) were allowed to stand so their root portions were dipped into the solution for 2 hours. The seedlings were then transferred into a test tube having 1 ml water placed in the bottom, and ten third-instar larvae of Laodelphax striatellus were released. After allowing the test tube to stand in the room (28° C.) for 24 hours, the dead larvae were counted. The test is repeated twice, and the test results are tabulated, in terms of mortality, in Table 2 (I).
Turning to `CCCSP(=S)(OCC)Oc1cnn(-c2cc(Cl)c(Cl)cc2Cl)c1` (centres unmarked) [compound 43], the mortality at 40 µg/mL is 85%.

In the next series the test system is Unaspis yanonensis. Nature of the series: Effectiveness against Unaspis yanonensis (Testing Example 3). Format: in vivo. The settings on record: 480 h, second-instar larvae, 500 ppm wettable powder suspension sprayed, 20th day after spraying. The procedure:
Testing Example 3: Effectiveness of Unaspis yanonensis
A test compound was processed into a wettable powder in accordance with the formulation of Example 7, and was diluted with water (with Dyne®, spreading agent, as diluted 3000-fold) to prepare a 500 ppm aqueous suspension. 20 ml of the aqueous suspension was sprayed on second-instar larvae (10 to 50 of the number parasitized) of Unaspis yanonensis on a seedling of Citrus trifoliate (2 months after germination) being planted in a pot (9 cm in diameter). After the sprayed pot was transferred to a greenhouse (25° to 30°C.), adult insects were counted on the 20th day after spraying. Mortality (%) is calculated by the following equation: [formula]
`COP(=S)(OC)Oc1cnn(-c2ccccc2)c1` [Compound No. 1] showed a mortality at 500 µg/mL of 86%.

Regarding `CCCOP(=S)(OCC)Oc1cnn(-c2ccccc2)c1` (centres unmarked) [Compound No. 3], the mortality at 500 µg/mL was 79%.

In the case of `CCCSP(=O)(OCC)Oc1cnn(-c2ccccc2)c1` (centres unmarked) [Compound No. 4, O-ethyl-O-(1-phenylpyrazol-4-yl)-S-n-propylphosphorothiolate], the mortality at 500 µg/mL is 84%.

`CCOP(=S)(OCC)Oc1cnn(-c2ccccc2)c1` [compound 2]: the mortality at 500 µg/mL is 75%.

The compound `CCCSP(=O)(OCC)Oc1cnn(-c2ccccc2Cl)c1` (centres unmarked) [compound 12] had a mortality at 500 µg/mL of 71%.

As to `CCCSP(=S)(OCC)Oc1cnn(-c2ccc(OC)cc2)c1` (centres unmarked) [compound 25], the mortality at 500 µg/mL was found to be 100%.

Take `CCOP(=S)(OCC)Oc1cnn(-c2ccc(C)cc2C)c1` [compound 34]: the mortality at 500 µg/mL came to 79%.

The compound `CCCSP(=O)(OCC)Oc1cnn(-c2ccc(C)cc2C)c1` (centres unmarked) [compound 35] returned a mortality at 500 µg/mL of 82%.
